According to EP4803519A1, “NOVEL PRMT5 INHIBITOR AND USE THEREOF” (Shanghai Apeiron Therapeutics Company Limited, priority 2023, dated 2025):

Experiments:
Format in all cases: cell-based
[1] = system: HCT-116 MTAP(-/-)deleted cells; assay: Inhibitory activity on proliferation of HCT-116 MTAP(-/-)deleted cells (Cell-Titer Glo); conditions: Homo sapiens, 144 h, incubated 6 d, 0-1,000 nM
In short: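 HCT-116 MTAP(-/-) cells in RPMI 1640 with 10% FBS were seeded overnight, then exposed to compound (10 points, 2.5-fold dilutions from 1,000 nM; 0.2% DMSO) for 6 d at 37 °C. Viability was read by CellTiter-Glo luminescence.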

[2] = system: HCT-116 wild-type cells; assay: Inhibitory activity on proliferation of HCT-116 wild-type cells (Cell-Titer Glo); conditions: Homo sapiens, 144 h, incubated 6 d, 0-10,000 nM
In short: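 HCT-116 wild-type cells in RPMI-1640 with 10% FBS were plated overnight, then exposed to compound for 6 d at 37°C (0–10,000 nM final, 2.5-fold, 10 points, 0.2% DMSO). Viability was read by Cell-Titer Glo luminescence.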

[3] = system: LU99 MTAP(-/-)deleted cells; assay: Inhibitory activity on proliferation of LU99 MTAP(-/-)deleted cells (Cell-Titer Glo); conditions: Homo sapiens, Lu-99, 144 h, incubated 6 d, 0-1,000 nM
In short: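 Log-phase MTAP-deleted LU99 cells in 10%-FBS medium were plated overnight. Compound was then added at final 0–1,000 nM (10 points, 2.5-fold dilution from 1,000 nM) in 0.2% DMSO.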

[4] = system: LU99 MTAP overexpressing cells; assay: Inhibitory activity on proliferation of LU99 MTAP overexpressing cells (Cell-Titer Glo); conditions: Homo sapiens, Lu-99, 144 h, incubated 6 d, 0-10,000 nM
In short: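 After overnight seeding, LU99 cells overexpressing MTAP were exposed to compound at 0-10,000 nM (10 points, 2.5-fold dilutions, 0.2% DMSO) for 6 d at 37°C, 5% CO2. Viability read by Cell-Titer Glo luminescence.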

IC50 [1] [nM] | IC50 [2] [nM] | SMILES | IC50 [3] [nM] | IC50 [4] [nM]
33.4 | 4100 | CN(C(=O)c1ccc2nc(N)c3cnccc3c2c1)[C@@H]1COC(C)(C)c2cc(C(F)(F)F)ccc21 [Example 37, (S)-5-amino-N-(1,1-dimethyl-7-(trifluoromethyl)isochroman-4-yl)-N-methylbenzo[c][2,7]naph thyridine-9-carboxamide] | 36.4 | 810
45.4 | > 10000 | CN(C(=O)c1cc2c3c(c(N)nc2cn1)COC3)C1COC(C)(C)c2cc(-c3ccnn3C)ccc21 (centres unmarked) [Example 9, (4-Amino(1,3-dihydrofuro[3,4-d]pyrido[5,4-b]pyridin-8-yl))-N-[1,1-dimethyl-7-(1-methylpyrazol-5-yl)isochroman-4-yl]-N-methylformamide] | 85 | 9790
5.9 | 1600 | CN(C(=O)c1ccc2nc(N)c3cnn(C)c3c2c1)C1COC(C)(C)c2cc(-n3cc(C(F)(F)F)cn3)ccc21 (centres unmarked) [Example 47, 4-amino-N-(1,1-dimethyl-7-(4-(trifluoromethyl)-1H-pyrazol-1-yl)isochroman-4-yl)-N,1-dimethyl-1H-pyrazolo[4,3-c]quinoline-8-carboxamide] | 7.5 | 1380
5.2 | 1140 | CN(C(=O)c1ccc2nc(N)c3cnn(C)c3c2c1)C1COC(C)(C)c2nc(C(F)(F)F)ccc21 (centres unmarked) [Example 39] | 8.4 | 1290
4.1 | 286 | CN(C(=O)c1cc2c(cc1F)nc(N)c1cnn(C)c12)C1COC(C)(C)c2cc(-c3ccnn3C)ccc21 (centres unmarked) [Example 14, (4-amino-7-fluoro-1-methylpyrazolo[4,5-c]quinolin-8-yl)-N-[1,1-dimethyl-7-(1-methylpyrazol-5-yl)isochroman-4-yl]-N-methylformamide] | 5.9 | 309
140 | 5550 | CN(C(=O)c1ccc2nc(N)c3cnn(C)c3c2c1)[C@H]1COC(C)(C)c2cc(C(F)(F)F)ccc21 [Example 17, (R)-4-amino-N-(1,1-dimethyl-7-(trifluoromethyl)isochroman-4-yl)-N,1-dimethyl-1H-pyrazolo[4,3-c]quinoline-8-carboxamide] | 174 | 5220
10.9 | 720 | CN(C(=O)c1cc2c(cc1F)nc(N)c1cnn(C)c12)C1COC(C)(C)c2cc(Br)ccc21 (centres unmarked) [Example 13, (4-Amino-7-fluoro-1-methylpyrazolo[4,5-c]quinolin-8-yl)-N-(7-bromo-1,1-dimethylisochroman-4-yl)-N-methylformamide] | 18.9 | 1070
6.7 | 1370 | CN(C(=O)c1ccc2nc(N)c3cnn(C)c3c2c1)[C@@H]1COC2(CCC2)c2cc(C(F)(F)F)ncc21 [Example 84, N-[(4S)-7-(trifluoromethyl)spiro[1,4-dihydro-3H-pyrano[4,5-c]pyridine-1,1'-cyclobutan]-4-yl](4-amino-1-methylpyrazolo[4,5-c]quinolin-8-yl)-N-methylformamide] | 10 | 1640
99.4 | 4860 | CN(C(=O)c1ccc2nc(N)c3c(c2c1)CCOC3)[C@@H]1COC(C)(C)c2cc(C(F)(F)F)ccc21 [Example 23] | 79.5 | 3170
413 | > 10000 | CN(C(=O)c1ccc2nc(N)c3cnn(C)c3c2c1)[C@@H]1COC(C)(C)c2nc(C(F)(F)F)ccc21 [Example 50] | 525 | 7400
95.1 | 2840 | CN(C(=O)c1ccc2nc(N)c3ncncc3c2c1)[C@@H]1COC(C)(C)c2cc(C(F)(F)F)ccc21 [Example 36, N-[(4S)-1,1-dimethyl-7-(trifluoromethyl)isochroman-4-yl](5-aminopyrimido[4,5-c]quinolin-9-yl)-N-methylformamide] | 116 | 668
5.7 | 1530 | CN(C(=O)c1ccc2nc(N)c3cnn(C)c3c2c1)[C@@H]1COC(C)(C)c2cc(-c3cnn(C(F)(F)F)c3)ccc21 [Example 32, (S)-4-amino-N-(1,1-dimethyl-7-(1-(trifluoromethyl)-1H-pyrazol-4-yl)isochroman-4-yl)-N,1-dimethyl-1H-pyrazolo[4,3-c]quinoline-8-carboxamide] | 6.8 | 1890
4.4 | 1760 | CN(C(=O)c1ccc2nc(N)c3cnn(C)c3c2c1)[C@@H]1COC(C)(C)c2cc(-c3cscn3)ccc21 [Example 42, N-((4S)-1,1-dimethyl-7-(1,3-thiazol-4-yl)isochroman-4-yl)(4-amino-1-methylpyrazolo[4,5-c]quinolin-8-yl)-N-methylformamide] | 6.1 | 1140
10.3 | 226 | CN(C(=O)c1cc2c(cn1)nc(N)c1cnn(C)c12)[C@@H]1COC(C)(C)c2cc(C(F)(F)F)ccc21 [Example 28, (S)-4-amino-N-(1,1-dimethyl-7-(trifluoromethyl)isochroman-4-yl)-N,1-dimethyl-1H-pyrazolo[4,3-c][1,7]naphthyridine-8-carboxamide] | 10.7 | 376
20.8 | 4370 | CN(C(=O)c1ccc2nc(N)c3c(cnn3C)c2c1)[C@@H]1COC(C)(C)c2cc(C(F)(F)F)ccc21 [Example 21, (S)-4-amino-N-(1,1-dimethyl-7-(trifluoromethyl)isochroman-4-yl)-N,3-dimethyl-3H-pyrazolo[3,4-c]quinoline-8-carboxamide] | 33.7 | 2820
1090 | 8140 | CN(C(=O)c1ccc2nc(N)c3c(c2c1)CCO3)C1COC(C)(C)c2cc(C(F)(F)F)ccc21 (centres unmarked) [Example 4, 4-Amino-N-(1,1-dimethyl-7-(trifluoromethyl)isochroman-4-yl)-N-methyl-1,2-dihydrofuro[2,3-c]quinoline-8-carboxamide] | 2260 | 3270
28.2 | 7770 | CN(C(=O)c1cc2c3c(c(N)nc2cn1)COC3)C1COC(C)(C)c2cc(C(F)(F)F)ccc21 (centres unmarked) [Example 5, 4-Amino-N-(1,1-dimethyl-7-(trifluoromethyl)isochroman-4-yl)-N-methyl-1,3-dihydrofuro[3,4-c][1,7]naphthyridine-8-carboxamide] | 37.1 | 4980
